The test system of series [1] is Southern root-knot nematode (Meloidogyne incognita). Description: Root-knot index on tomato seedlings in soil contaminated with Southern root-knot nematode (Test Example 3). Type of series: in vivo. The note with it: 3% granule, checked 25 days after transplanting. The protocol: A predetermined quantity of a 3% granule of each compound was mixed with a soil contaminated with Southern root-knot nematode (Meloidogyne incognita). 2 days after treatment of the compound, 3 to 4 leaf stage tomato seedlings were transplanted, and the root-knot index was checked 25 days later.
The root-knot index was determined with the following standard for nemotoidal evaluation.
2 Moderate number of root-knots found
4 Very many root-knots found

Series [2] concerns Green rice leafhopper (Nephotettix cincticeps). Put plainly: Mortality of Green rice leafhopper female adults on pot-grown rice plants treated with a 1000 ppm suspension (Test Example 1). Type of series: in vivo. How it is done:
10 ml of a 1000 ppm suspension of each sample compound (30% wettable powder) was poured into a pot in which rice plant (1.5 leaf stage) was grown, and the pot was placed in a greenhouse enclosed by glass. 3 days after applying the sample compound, the rice plant was covered by a cylindrical metal netting having a diameter of 7.5 cm and a height of 40 cm and 10 female adults of Green rice leafhopper (Nephotettix cincticeps) were released in the netting. The numbers of living and dead insects were checked 48 hours after applying. The test was repeated twice.

In a further series the test system is second instar larvae. Put plainly: Mortality of second instar larvae on pot-grown cabbage treated with a 1000 ppm suspension (Test Example 2). Type of series: in vivo. How it is done: 30 ml of a 1000 ppm suspension of each sample compound (30% wettable powder) was poured into a pot in which cabbage (2 to 3 leaf stage) was grown, and the pot was placed in a greenhouse enclosed by glass. 3 days after applying the sample compound, the cabbage was covered by a cylindrical metal netting having a diameter of 7.5 cm and a height of 20 cm and 10 second instar larvae were released in the netting. 48 hours after applying the numbers of living and dead insects were checked. The test was repeated twice.

For series [3], the system named is warm-blooded animals and fishes. The conditions noted are these: prior art statement; cited from earlier work.
Series [4] can be described thus: Acute oral toxicity in mice (Toxicity Test Example). The note with it: mouse, in vivo, male mice, 7 days after administration, Litchfield-Wilcoxon Method. The protocol:
Representative examples of the compound of this invention were administered orally to mice (.male.) and the acute toxicities thereof were tested. LD50 was calculated from the percentage of dead mice according to the Litchfield-Wilcoxon Method 7 days after the administration.

Like-named read-outs stand apart in the source and are kept apart here.

The text below walks through data of US4966896A, “Derivative of N-methylcarbamate and insecticide containing the same” (priority 1988, dated 1990).

In general, mortality refers to the percentage killed. As usually defined, the LD50 is the dose expected to kill half of the subjects tested. A high value points to lower toxicity.

As to `CN(C(=O)NS(=O)(=O)Nc1ccccn1)C(=O)Oc1cccc2c1OC(C)(C)C2` [compound 13], the “Root-Knot Index” value is 3 in series [1] (Active Ingredient 250 g/a) and 2 in series [1] (Active Ingredient 500 g/a). The same compound showed a mortality at 1000 ppm in series [2] (48 h) of 100%.
In the case of `CONS(=O)(=O)NC(=O)N(C)C(=O)Oc1cccc2c1OC(C)(C)C2` [compound 14, 2,3-dihydro-2,2-dimethylbenzofuran-7-yl N-(methoxysulfamoylcarbamoyl) N-methylcarbamate], the “Root-Knot Index” value in series [1] (Active Ingredient 250 g/a) came out at 3; in series [1] (Active Ingredient 500 g/a), 2. The mortality at 1000 ppm in series [2] (48 h) amounted to 100%.
With `CN(C(=O)NS(=O)(=O)Cl)C(=O)Oc1cccc2c1OC(C)(C)C2` [Compound No. 1, 2,3-Dihydro-2,2-dimethylbenzofuran-7-yl N-(chlorosulfonylcarbamoyl) N-methylcarbamate], the mortality at 1000 ppm (in the series on second instar larvae (48 h); in series [2] (48 h)) was 100% in each case. For the same compound, the “Root-Knot Index” value in series [1] (Active Ingredient 250 g/a) is given as 2; in series [1] (Active Ingredient 500 g/a), 1.
For `CC(C)NS(=O)(=O)NC(=O)N(C)C(=O)Oc1cccc2c1OC(C)(C)C2` [Compound No. 4], the mortality at 1000 ppm (with second instar larvae (48 h); in series [2] (48 h)) was 100% each time. Further, the “Root-Knot Index” value in series [1] (Active Ingredient 250 g/a) came to 2; in series [1] (Active Ingredient 500 g/a), 1.
In series [2] (48 h), `CN(C(=O)NS(=O)(=O)NC1CCCC1)C(=O)Oc1cccc2c1OC(C)(C)C2` [compound 18] returned a mortality at 1000 ppm of 80%.
For the compound `CNS(=O)(=O)NC(=O)N(C)C(=O)Oc1cccc2c1OC(C)(C)C2` [Compound No. 2, 2,3-Dihydro-2,2-dimethylbenzofuran-7-yl N-(methylsulfamoylcarbamoyl) N-methylcarbamate], the mortality at 1000 ppm (with second instar larvae (48 h); in series [2] (48 h)) was 100% each time. For the same compound, the “Root-Knot Index” value in series [1] (Active Ingredient 250 g/a) is on record as 3; in series [1] (Active Ingredient 500 g/a), 2.
For `C#CCNS(=O)(=O)NC(=O)N(C)C(=O)Oc1cccc2c1OC(C)(C)C2` [compound 7, 2,3-dihydro-2,2-dimethylbenzofuran-7-yl N-(propargylsulfamoylcarbamoyl) N-methylcarbamate], the mortality at 1000 ppm (in the series on second instar larvae (48 h); in series [2] (48 h)) was 100% in each case. For the same compound, the “Root-Knot Index” value in series [1] (Active Ingredient 250 g/a) is 2; in series [1] (Active Ingredient 500 g/a), 1.
On to `CCCNS(=O)(=O)NC(=O)N(C)C(=O)Oc1cccc2c1OC(C)(C)C2` [compound 15, 2,3-dihydro-2,2-dimethylbenzofuran-7-yl N-(propylsulfamoylcarbamoyl) N-methylcarbamate], for which the mortality at 1000 ppm (with second instar larvae (48 h); in series [2] (48 h)) was 100% throughout. The “Root-Knot Index” value was determined as 2 in series [1] (Active Ingredient 250 g/a) and 1 in series [1] (Active Ingredient 500 g/a).
For the compound `CNC(=O)Oc1cccc2c1OC(C)(C)C2` [Control, 2,3-dihydro-2,2-dimethylbenzofuran-7-yl N-methyl-carbamate], the “toxicity to warm-blooded animals and fishes” value in series [3] is “extremely toxic to warm-blooded animals and fishes”.
Turning to `CNC(=O)Oc1cccc2c1OC(C)(C)C2` [Control], the mortality at 1000 ppm is 100% in the series on second instar larvae (30 ml of 1000 ppm suspension (30% wettable powder) per pot, larvae released 3 days after applying, checked at 48 hours, repeated twice, read-out: Mortality) and 100% in series [2] (10 ml of 1000 ppm suspension (30% wettable powder) per pot, insects released 3 days after applying, checked at 48 hours, repeated twice, read-out: Mortality). Besides, the LD50 at 168 h in series [4] was determined as 5 mg/kg.
In the case of `CCNS(=O)(=O)NC(=O)N(C)C(=O)Oc1cccc2c1OC(C)(C)C2` [Compound No. 3, 2,3-Dihydro,2,2-dimethylbenzofurane-7-yl N-(ethylsulfamoylcarbamoyl) N-methylcarbamate], the mortality at 1000 ppm (in the series with second instar larvae (48 h); in series [2] (48 h)) was 100% in each case. In series [4], this compound displayed an LD50 at 168 h of 170 mg/kg. The “Root-Knot Index” value in series [1] (Active Ingredient 250 g/a) was 2; in series [1] (Active Ingredient 500 g/a), 1.
As to `COC(=O)c1ccccc1NS(=O)(=O)NC(=O)N(C)C(=O)Oc1cccc2c1OC(C)(C)C2` [compound 10], the “Root-Knot Index” value in series [1] (Active Ingredient 250 g/a) is listed as 2; in series [1] (Active Ingredient 500 g/a) it was 1. Further, in series [2] (48 h), the mortality at 1000 ppm turned out to be 90%.
In the case of `CN(C(=O)NS(=O)(=O)NC1CCCCC1)C(=O)Oc1cccc2c1OC(C)(C)C2` [compound 19], in series [2] (48 h), the mortality at 1000 ppm amounted to 80%.
Consider `COc1ccccc1NS(=O)(=O)NC(=O)N(C)C(=O)Oc1cccc2c1OC(C)(C)C2` [compound 9], for which the “Root-Knot Index” value is on record as 3 in series [1] (Active Ingredient 250 g/a) and 2 in series [1] (Active Ingredient 500 g/a). In series [2] (48 h), the mortality at 1000 ppm came out at 90%.
For the compound `CCCCNS(=O)(=O)NC(=O)N(C)C(=O)Oc1cccc2c1OC(C)(C)C2` [Compound No. 5, 2,3-dihydro-2,2-dimethylbenzofuran-7-yl N-(butylsulfamoylcarbamoyl) N-methylcarbamate], the mortality at 1000 ppm (with second instar larvae (48 h); in series [2] (48 h)) was 100% in each case. Besides, the LD50 at 168 h in series [4] was 200 mg/kg. For the same compound, the figures for the “Root-Knot Index” value in series [1] (Active Ingredient 250 g/a) and in series [1] (Active Ingredient 500 g/a) were 2 and 1, respectively.
`CCOC(=O)c1ccc(NS(=O)(=O)NC(=O)N(C)C(=O)Oc2cccc3c2OC(C)(C)C3)cc1` [compound 11]: the entries for the “Root-Knot Index” value in series [1] (Active Ingredient 250 g/a) and in series [1] (Active Ingredient 500 g/a) were 3 and 2, respectively. For the same compound, in series [2] (48 h), the mortality at 1000 ppm was determined as 90%.
For `CN(C(=O)NS(=O)(=O)Nc1ccccc1Cl)C(=O)Oc1cccc2c1OC(C)(C)C2` [compound 8], the “Root-Knot Index” value in series [1] (Active Ingredient 250 g/a) turned out to be 3; in series [1] (Active Ingredient 500 g/a), 2. This compound also had a mortality at 1000 ppm in series [2] (48 h) of 90%.
For `CN(C(=O)NS(=O)(=O)Nc1nccs1)C(=O)Oc1cccc2c1OC(C)(C)C2` [compound 12], in that order: 3, 2 and 100%.
On to `CN(C(=O)NS(=O)(=O)NC(C)(C)C)C(=O)Oc1cccc2c1OC(C)(C)C2` [compound 17], for which the mortality at 1000 ppm (with second instar larvae (48 h); in series [2] (48 h)) was 100% in each case. The entries for the “Root-Knot Index” value in series [1] (Active Ingredient 250 g/a) and in series [1] (Active Ingredient 500 g/a) were 2 and 1, respectively.
As to `CCC(C)NS(=O)(=O)NC(=O)N(C)C(=O)Oc1cccc2c1OC(C)(C)C2` (centres unmarked) [compound 16], the mortality at 1000 ppm (in the series on second instar larvae (48 h); in series [2] (48 h)) was 100% each time. In addition, the “Root-Knot Index” value in series [1] (Active Ingredient 250 g/a) is recorded as 2; in series [1] (Active Ingredient 500 g/a), 1.
